This is an account of results in EP1407768A2, “The potassium channel opener retigabine for the treatment of diseases” (GLAXO GROUP LIMITED, priority 1999, dated 2001).

The target of experiment [1] is T1, KCNQ2/3 potassium channel (Homo sapiens, UniProt O43525+O43526).
T1 construct: expressed in transfected cells; host or cells: Xenopus laevis oocytes injected with capped cRNA (KCNQ2 in pCIN3, KCNQ3 in pCIH6)
As to the kind of experiment: Current clamp of oocytes expressing KCNQ2 plus KCNQ3: hyperpolarisation of the cell. It is filed as cell-based.

Experiment [2] has as its target T1, KCNQ2/3 potassium channel. As to the kind of experiment: Two-microelectrode voltage-clamp of Xenopus oocytes expressing equimolar KCNQ2 plus KCNQ3. It is filed as cell-based. To be noted: for fold induction at 10 µM: read-out: increase of outward KCNQ current amplitude, 10µM retigabine; for increase of the rate of current activation: data fitted to a single exponential. An excerpt: Human KCNQ2 and KCNQ3 potassium channels were cloned from a human brain CDNA library using standard methodology. All clones were sequenced and were identical to those reported in the literature (Charlier, C., Singh, N.A., Ryan, S.G., Lewis, T.B., Reus, B. E., Leach, R.J. Leppert, M. (1998). A pore mutation in a novel KQT-like potassium channel gene in an idiopathic epilepsy family. Nature Genetics 18: 53-55 and Singh, N.A., Charlier, C., Stauffer, D., DuPont, B.R., Leach, R.J., Melis, R., Ronen, G.M., Bjerre, I., Quattlebaum, T., Murphy, J.V., McHarg, M.L., Gagnon, D., Rosales, T.O., Peiffer, A., Anderson, E & Leppert, M. (1998) Nature Genetics, 18: 25-29).
Adult female Xenopus laevis (Blades Biologicals) were anaesthetised using 0.2% tricaine (3-aminobenzoic acid ethyl ester), killed and the ovaries rapidly removed. Oocytes were de-folliculated by collagenase digestion (Sigma type I, 1.5 mg ml^-1) in divalent cation-free OR2 solution (82.5mM NaCl, 2.5mM KCI, 1.2mM NaH2PO4, 5mM HEPES; pH 7.5 at 25°C). Single stage V and VI oocytes were transferred to ND96 solution (96mM NaCl, 2mM KCI, 1mM MgCl2, 1.8mM CaCl2, 5mM HEPES; pH 7.5 at 25°C) which contained 50µg ml^- ^1 gentamycin and stored at 18°C.
KCNQ2 (in pCIN3 vector) and KCNQ3 (in pCIH6) were linearised and transcribed to RNA using T7 or T3 polymerase (Promega Wizard kit). m'G(5')pp(5')GTP capped cRNA was injected into oocytes (20-50nl of 1µgµl^-1 RNA per oocyte) and whole-cell currents were recorded using two-microelectrode voltage-clamp (Geneclamp amplifier, Axon instruments Inc.) 3 to 5 days post-RNA injection. […] In all experiments oocytes were voltage-clamped at a holding potential of -90mV in ND96 solution (superfused at 2ml per min.) and test compounds were applied by addition to this extracellular solution. Current-voltage curves were constructed by applying 800ms voltage-clamp pulses from the holding potential of -90mV to test potentials between -85mV and +30mV..
Whole-cell currents were recorded from oocytes expressing KCNQ2 alone, KCNQ3 alone and an equimolar combination of KCNQ2 plus KCNQ3. Mean current amplitude (at +20mV) was 152 +/- 21 nA for KCNQ2 alone, 157 +/-19nA for KCNQ3 alone and 1467 +/- 420nA for KCNQ2 & KCNQ3. Further characterisation of the KCNQ2/KCNQ3 heteromeric channel (current-voltage curve, conductance plot, linopirdine block) gave similar results to those reported in the literature (Yang, W.-P., Levesque, P.C., Little, W.A., Conder, M.L., Ramakrishnan, P., Neubauer, M.G. & Blanar, M.A, (1998) Functional expression of two KvLQT1-related potassium channels responsible for an inherited idiopathic epilepsy. J. Biol. Chem., 31: 19419-19423 and Wang, H.-S., Pan, Z., Shi, W., Brown, B.S.,. Wymore, R.S., Cohen, I.S., Dixon, J.E. & McKinnon, D (1998) KCNQ2 and KCNQ3 potassium channel subunits: molecular correlates of the M-channel. Science 282: 1890-1893).
The effects of retigabine were studied in oocytes expressing equimolar KCNQ2 plus KCNQ3. Application of 10µM retigabine led to a pronounced 20mV hyperpolarising shift in the threshold for KCNQ current activation (n=5), such that an augmentation of KCNQ current was seen over the normal physiological range of membrane potentials. For example, at a test potential of -60mV, outward KCNQ current amplitude increased 8-fold in the presence of retigabine (6.2-fold at -70mV; 7.1-fold at -50mV; n=5). These changes in KCNQ current amplitude were associated with an increase in the rate of current activation: Retigabine increased the rate of current activation 15-fold at a test potential of -40mV, and 3-fold at a test potential of -30mV (data fitted to a single exponential in each case).
Application of retigabine led to a marked alteration in the properties of the KCNQ2/3 tail currents. In these experiments the voltage clamp protocols comprised a 1s prepulse from -100mV to +40mV to fully activate the KCNQ2/3 channel, followed by a 6s pulse to test potentials between -30mV and -110mV.

For experiment [3], the system named is carageenan model of inflammatory pain. The experiment in a line: Carageenan model of inflammatory pain. It is filed as in vivo. An excerpt:
Br. J. Pharmacol. 120: P78).

The next experiment deals with T2, KCNQ2 (Homo sapiens, UniProt O43526).
T2 construct: expressed in transfected cells; host or cells: Xenopus oocytes, expression vector pSP64t
T2 sequence (O43526 1-844 isoform O43526-3): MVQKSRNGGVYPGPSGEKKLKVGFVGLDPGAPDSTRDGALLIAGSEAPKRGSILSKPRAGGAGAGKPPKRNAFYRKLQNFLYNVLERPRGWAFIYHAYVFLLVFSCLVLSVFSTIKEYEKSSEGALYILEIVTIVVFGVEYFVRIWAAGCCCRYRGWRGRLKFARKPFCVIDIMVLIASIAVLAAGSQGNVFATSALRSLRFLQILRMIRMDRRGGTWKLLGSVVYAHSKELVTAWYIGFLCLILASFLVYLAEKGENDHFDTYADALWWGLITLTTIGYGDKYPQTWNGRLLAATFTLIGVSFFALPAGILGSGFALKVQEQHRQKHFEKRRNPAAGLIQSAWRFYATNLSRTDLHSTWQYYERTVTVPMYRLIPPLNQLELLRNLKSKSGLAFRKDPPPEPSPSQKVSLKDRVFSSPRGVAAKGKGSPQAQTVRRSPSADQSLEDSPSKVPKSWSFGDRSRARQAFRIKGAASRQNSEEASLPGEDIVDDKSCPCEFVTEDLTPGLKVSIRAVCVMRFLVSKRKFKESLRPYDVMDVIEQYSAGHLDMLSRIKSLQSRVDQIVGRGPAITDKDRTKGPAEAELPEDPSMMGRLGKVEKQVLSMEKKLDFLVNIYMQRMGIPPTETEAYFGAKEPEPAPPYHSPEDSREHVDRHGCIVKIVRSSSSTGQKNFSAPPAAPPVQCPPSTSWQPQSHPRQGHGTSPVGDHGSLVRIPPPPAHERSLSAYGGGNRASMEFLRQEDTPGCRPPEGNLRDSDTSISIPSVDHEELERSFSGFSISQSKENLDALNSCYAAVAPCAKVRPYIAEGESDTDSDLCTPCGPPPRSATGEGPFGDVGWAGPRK
As to the kind of experiment: Voltage-clamp of Xenopus oocytes expressing KCNQ2 alone (pSP64t vector). To be noted: 10µM retigabine. It is filed as cell-based.

The test system of experiment [4] is pentylene tetrazol-induced seizures in rats. Particulars: protection against pentylene tetrazol-induced seizures in rats; cited from earlier work.

Read-outs that look alike come from different tables or passages of the source.

T1 sequence (O43526 1-844 isoform O43526-3): as above
T1 sequence (O43525 whole entry): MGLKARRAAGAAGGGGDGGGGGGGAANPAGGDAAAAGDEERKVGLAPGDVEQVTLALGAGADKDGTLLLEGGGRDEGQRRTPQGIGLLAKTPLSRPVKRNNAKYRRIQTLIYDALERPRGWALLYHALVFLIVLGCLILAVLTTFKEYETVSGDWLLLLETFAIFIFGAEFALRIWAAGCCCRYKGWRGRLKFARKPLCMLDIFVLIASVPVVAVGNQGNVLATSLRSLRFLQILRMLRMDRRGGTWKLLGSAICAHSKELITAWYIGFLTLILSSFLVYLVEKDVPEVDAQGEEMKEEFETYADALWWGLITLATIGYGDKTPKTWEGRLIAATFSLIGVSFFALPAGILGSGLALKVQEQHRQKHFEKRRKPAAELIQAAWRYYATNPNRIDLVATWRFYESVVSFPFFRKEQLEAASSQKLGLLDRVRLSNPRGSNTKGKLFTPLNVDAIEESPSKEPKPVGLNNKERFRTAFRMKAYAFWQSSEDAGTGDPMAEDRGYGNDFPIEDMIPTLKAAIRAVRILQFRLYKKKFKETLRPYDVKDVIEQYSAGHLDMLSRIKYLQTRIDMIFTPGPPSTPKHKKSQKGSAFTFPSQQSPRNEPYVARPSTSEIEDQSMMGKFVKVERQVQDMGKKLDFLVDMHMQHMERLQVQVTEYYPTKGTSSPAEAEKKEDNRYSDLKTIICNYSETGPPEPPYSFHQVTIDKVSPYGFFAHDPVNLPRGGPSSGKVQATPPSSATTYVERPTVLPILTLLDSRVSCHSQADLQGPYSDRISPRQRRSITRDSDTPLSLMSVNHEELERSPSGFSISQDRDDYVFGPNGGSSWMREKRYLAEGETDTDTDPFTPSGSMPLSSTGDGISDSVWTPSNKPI

One may read the EC50 as the concentration that produces a half-maximal response. A word on the Hill slope: it is a measure of the steepness of the concentration-response curve. What is called ED50 is the dose that gives a 50% effect, or the effect in half of the subjects. Turning to `CCOC(=O)Nc1ccc(NCc2ccc(F)cc2)cc1N` [retigabine, 2-amino-4-(4-fluorobenzylamino)-1-ethoxycarbonylaminobenzene], the EC50 in experiment [1] stood at 5.2 µM. For the same molecule, the Hill slope in experiment [1] (hyperpolarisation of oocytes held under current clamp) was found to be 1.1 ± 0.1. Further, in experiment [2] (10µM retigabine, oocytes expressing equimolar KCNQ2 plus KCNQ3, n=5), the “hyperpolarising shift in the threshold for KCNQ current activation” value is 20 mV. Further, the fold induction at 10 µM in experiment [2] (test potential -50mV, n=5) came out at 7.1; in experiment [2] (test potential -60mV, n=5) it was 8; in experiment [2] (test potential -70mV, n=5) it was 6.2. For the same molecule, the “increase of the rate of current activation” value in experiment [2] (test potential -30mV) is 3 fold; in experiment [2] (test potential -40mV), 15 fold. In addition, the “KCNQ2/3 tail current deactivation” value in experiment [2] (test potentials -30mV, -40mV after 1s prepulse from -100mV to +40mV) is reported as “deactivation does not occur”. Besides, the “rate of KCNQ2/3 channel deactivation in comparison to control” value in experiment [2] (test potentials -50mV to -110mV after 1s prepulse from -100mV to +40mV) is listed as “significantly slowed”. Also, the ED50 is 4.5 mg/kg in experiment [3] and 6.2 mg/kg in experiment [4]. Also, the “mean delay (rate of current activation)” value on KCNQ2 (at -40mV, control 132+/-16ms) turned out to be 75 ± 7 ms. The KCNQ current amplitude on KCNQ2 (at -50mV, n=7, control = 145+/-34nA) is 501+/-116 nA. In addition, the “hyperpolarising shift in the threshold for KCNQ2 current activation” value on KCNQ2 (oocytes expressing KCNQ2 alone) is listed as 20 mV.
